Format in all cases: binding
One assay concerns the target T1, hSERT transporter (Homo sapiens, UniProt P31645).
T1 construct: expressed in transfected cells; membranes prepared
Briefly: Human serotonin transporter (hSERT) scintillation proximity assay, competition with [3H]-Citalopram. From the text: Screening for Human Serotonin Transporter (hSERT) Antagonists Using a Scintillation Proximity Assay (SPA)
The screening assay of this example was used to determine the affinity of ligands at the hSERT transporter by competition with [^3H]-Citalopram.
Scintillation Proximity Assay (SPA) works by bringing radioligand within close proximity to the bead's scintillant to stimulate light emission. In this assay, the receptor-containing membranes were pre-coupled to the SPA beads and the binding of the appropriate radioligand to the transporter was measured. The light emission was proportional to the amount of bound radioligand. Unbound radioligand produced no signal as a result of distant proximity to scintillant (lack of energy transfer).
Cells are released from culture flasks using PBS for 1-2 minutes. The cells were subsequently centrifuged at 1000 g's for 5 minutes and resuspended in PBS prior to being used in the membrane preparation.
(§1) Cell membranes were prepared using a membrane preparation buffer of 50 mM TRIS (pH 7.4). Cell membranes were prepared from a single cube (7.5×10^9 cells total). Cells were homogenized using a Polytron (setting medium for a 4 second burst). The homogenate was then centrifuged at 48,000×g for 15 minutes, the supernatant subsequently removed and discarded, and the pellet resuspended with fresh buffer. After a second centrifugation, the pellet was re-homogenized and brought to a final volume determined during the assay. Typically, membrane portions were aliquoted in 3 mg/ml (w:v). and stored at −80° C.
Compounds of the invention were diluted from 10 mM to 0.1 nM FAC (10 point curves, whole log/half log dilutions) via a Beckman Biomek 2000 using a serial dilution protocol. The test compounds were then transferred (20 μl/well) and the [^3H]-Citalopram radioligand was added at 50 μl/well. Membrane and beads were prepared to a ratio of 10 μg: 0.7 mg, with 0.7 mg PVT-WGA Amersham beads (Cat# RPQ0282V) added per well. 130 μl of the membrane: bead mixture was added to the assay plate.
The % inhibition was calculated for each compound tested [(Compound counts per minute (CPM) at maximum concentration-Non-Specific CPM)/Total CPM*100].
(§2) where max=total binding, min=non specific binding, x=concentration (M) of the tested compound and n=Hill slope. The inhibition dissociation constant (Ki) of each compound was determined according to the method of Cheng-Prusoff and then converted into negative logarithm (pKi) of the Ki.
(In general: In a scintillation proximity assay essentially only radioactivity close to the scintillant gives light.)

The next assay deals with T2, hNET transporter (Homo sapiens, UniProt P23975).
T2 construct: expressed in transfected cells; membranes prepared
T2 sequence (P23975 whole entry): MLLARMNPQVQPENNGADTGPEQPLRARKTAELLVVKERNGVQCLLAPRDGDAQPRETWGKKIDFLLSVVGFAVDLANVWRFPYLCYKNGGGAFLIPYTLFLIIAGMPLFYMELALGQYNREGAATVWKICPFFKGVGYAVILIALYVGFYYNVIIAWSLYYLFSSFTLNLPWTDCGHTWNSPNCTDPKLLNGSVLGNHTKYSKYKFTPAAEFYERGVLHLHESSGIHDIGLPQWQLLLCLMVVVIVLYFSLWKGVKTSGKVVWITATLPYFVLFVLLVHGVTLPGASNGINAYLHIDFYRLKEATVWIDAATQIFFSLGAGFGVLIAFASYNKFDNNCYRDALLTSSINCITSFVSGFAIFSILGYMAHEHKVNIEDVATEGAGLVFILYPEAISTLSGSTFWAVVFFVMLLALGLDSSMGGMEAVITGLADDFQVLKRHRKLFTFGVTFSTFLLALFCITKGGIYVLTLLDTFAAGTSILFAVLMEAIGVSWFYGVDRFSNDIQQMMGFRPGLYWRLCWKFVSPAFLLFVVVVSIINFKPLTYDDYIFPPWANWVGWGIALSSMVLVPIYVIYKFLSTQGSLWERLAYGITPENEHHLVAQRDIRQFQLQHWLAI
Nature of the assay: Human norepinephrine transporter (hNET) scintillation proximity assay, competition with [3H]-Nisoxetine. As to the method: This assay was used to determine the affinity of ligands for the hNET transporter by competition with [^3H]-Nisoxetine. As in the hSERT assay of the above example, receptor-containing membranes were pre-coupled to the SPA beads and the binding of the appropriate radioligand to the transporter was measured. The light emission was proportional to the amount of bound radioligand, with unbound radioligand producing no signal.
HEK-293 cells (Tatsumi et al., Eur. J. Pharmacol. 1997, 30, 249-258) stably expressing recombinant hNET (Clone: HEK-hNET #2) were maintained with media (DMEM hi glucose with 10% FBS, 300 μg/ml G418 and 2 mM L-Glutamine) and incubated at 37° C. with 5% CO2. Cells were released from culture flasks using PBS for 1-2 minutes. The cells were subsequently centrifuged at 1000 g's for 5 minutes and resuspended in PBS prior to being used in the membrane preparation.
as §1, with “(7.5×10^9cells” for “(7.5×10^9 cells”, “3-6 mg/mil” for “3 mg/ml”
^3[H] […] Compounds of the invention were diluted from 10 mM to 0.1 nM FAC (10 point curves, whole log /half log dilutions) via a Beckman Biomek 2000 using a serial dilution protocol. The test compounds were then transferred (20 μl/well) and the radioligand was added at 50 μl/well. Membrane and beads were prepared to a ratio of 10 μg: 0.7 mg, with 0.7 mg PVT-WGA Amersham beads (Cat# RPQ0282V) added per well. 130 μl of the membrane: bead mixture was added to the assay plate. The mixtures were allowed to stand at room temperature for one hour, and were then counted on a Packard TopCount LCS, a generic SPA counting protocol settings (Energy Range: Low, Efficiency Mode: Normal, Region A: 1.50-35.00, Region B: 1.50-256.00, Count Time (min.): 0.40, Background Subtract: none, Half-Life Correction: no, Quench Indicator: tSIS, Platemap blank subtraction: No, Cross talk reduction: Off).
The % inhibition was calculated for each compound tested [(Compound CPM at maximum concentration-Non-Specific CPM)/Total CPM*100]. The concentration producing 50% inhibition (IC50) was determined using an iterative non-linear curve fitting technique with Activity Base/Xlfit using the following equation:
as §2

The next assay has as its target T3, hDAT (Homo sapiens, UniProt Q01959).
T3 construct: expressed in transfected cells; plated whole cells
Nature of the assay: Human dopamine transporter scintillation proximity assay, competition with [3H]-Vanoxerine. The procedure:
This assay was used to determine the affinity of ligands for the dopamine transporter by competition with [^3H]-Vanoxerine.
Cells were plated four hours prior to experiment by placing approximately 30,000 cells per well (in PBS) on white, opaque Cell-Tak coated 96 well plates. Extra buffer was apriated from the cell plates using an ELx405 plate washer.
Compounds of the invention were diluted from 10 mM to 0.1 nM FAC (10 point curves, whole log/half log dilutions) via a Beckman Biomek 2000 using a 10-point dilution protocol. The mixtures were allowed to stand at room temperature for 30 minutes, and were then counted on a Packard TopCount LCS, a generic SPA counting protocol settings, Count Time (min.): 0.40, Background Subtract: none, Half-Life Correction: none, Quench Indicator: tSIS, Platemap blank subtraction: none, Cross talk reduction: Off).
The % inhibition was calculated for each compound tested [(Compound CPM at maximum concentration-Non-Specific CPM)/Total CPM*100].
as §2

Where [1] appears, read: Table 1, read-out: pIC50 NET (converted).
The mark [2] stands for this setting: Table 1, read-out: pIC50 DAT (converted).
[3] abbreviates: Table 1, read-out: pIC50 SERT (converted).

Where two headings read alike, the source gives them in different places.

We go through 20 compounds from patent publication US20090318493A1 (Roche Palo Alto LLC, priority 2008, published 2009).

T3 sequence (Q01959 whole entry): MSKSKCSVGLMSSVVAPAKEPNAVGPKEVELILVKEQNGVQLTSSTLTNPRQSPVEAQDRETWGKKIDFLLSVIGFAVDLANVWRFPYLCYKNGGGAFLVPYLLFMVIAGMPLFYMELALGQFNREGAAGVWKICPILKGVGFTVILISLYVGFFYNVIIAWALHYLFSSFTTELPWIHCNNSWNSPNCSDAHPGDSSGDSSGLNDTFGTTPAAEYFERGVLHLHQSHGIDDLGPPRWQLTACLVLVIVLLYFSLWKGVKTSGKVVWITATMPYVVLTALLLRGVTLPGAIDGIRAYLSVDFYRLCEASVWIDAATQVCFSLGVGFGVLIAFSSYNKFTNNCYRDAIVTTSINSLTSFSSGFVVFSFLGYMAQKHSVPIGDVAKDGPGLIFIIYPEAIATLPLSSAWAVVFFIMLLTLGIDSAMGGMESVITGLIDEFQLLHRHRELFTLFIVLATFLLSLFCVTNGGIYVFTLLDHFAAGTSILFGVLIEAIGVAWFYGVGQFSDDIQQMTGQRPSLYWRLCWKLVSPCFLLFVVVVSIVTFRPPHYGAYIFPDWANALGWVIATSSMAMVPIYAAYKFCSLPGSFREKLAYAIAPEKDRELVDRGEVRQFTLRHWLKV
T1 sequence (P31645 whole entry): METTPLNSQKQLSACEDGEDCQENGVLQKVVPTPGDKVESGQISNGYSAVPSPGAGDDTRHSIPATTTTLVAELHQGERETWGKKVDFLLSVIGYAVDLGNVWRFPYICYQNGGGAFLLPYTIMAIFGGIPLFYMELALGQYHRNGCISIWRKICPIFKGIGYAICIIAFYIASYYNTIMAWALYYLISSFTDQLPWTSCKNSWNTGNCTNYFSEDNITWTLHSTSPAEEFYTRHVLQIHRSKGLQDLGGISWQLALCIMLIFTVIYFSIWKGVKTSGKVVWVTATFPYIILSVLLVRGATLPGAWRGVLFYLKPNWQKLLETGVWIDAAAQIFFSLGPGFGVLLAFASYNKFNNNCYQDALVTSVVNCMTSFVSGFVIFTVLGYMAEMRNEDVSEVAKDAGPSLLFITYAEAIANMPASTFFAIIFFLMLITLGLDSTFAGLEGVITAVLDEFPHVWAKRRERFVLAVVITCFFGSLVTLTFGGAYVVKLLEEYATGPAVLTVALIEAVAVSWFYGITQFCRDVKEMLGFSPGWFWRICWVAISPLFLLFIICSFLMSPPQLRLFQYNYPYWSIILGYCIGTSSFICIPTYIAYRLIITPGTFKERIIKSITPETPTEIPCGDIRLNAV

Consider `CCCC[C@@]1(C(=O)c2ccc(Cl)c(Cl)c2)CC[C@@H]2CC[C@H]1N2C` (mixture of isomers) [Compound 54, ((1R,2R,SR)-2-Butyl-8-methyl-8-aza-bicyclo[3.2.1]oct-2-yl)-(3,4-dichloro-phenyl)-methanone], for which the IC50 at hSERT transporter is 331 nM; at hNET transporter (setting [1]) it was 501 nM; on hDAT, 28.2 nM.

`CC(C)CC1(C(=O)c2cc(F)c(N)c(Cl)c2)CCNC1` (stereo in doubt) [Compound 24, (4-Amino-3-chloro-5-fluoro-phenyl)-((R)-3-isobutyl-pyrrolidin-3-yl)-methanone]: the IC50 is 24.5 nM on hSERT transporter, 20 nM at hNET transporter (setting [1]) and 25.1 nM on hDAT.

Take `CCCC1(C(=O)c2ccc(Cl)c(Oc3ccccc3)c2)CCNC1` (stereo in doubt) [Compound 29, (4-Chloro-3-phenoxy-phenyl)-((S)-3-propyl-pyrrolidin-3-yl)-methanone]: the IC50 is 13.2 nM on hSERT transporter, 2.63 nM at hNET transporter (setting [1]) and 10.5 nM at hDAT.

Turning to `CCCC1(C(=O)c2ccc(Cl)c(Oc3ccccc3)c2)CCNC1` (stereo in doubt) [Compound 30, (4-Chloro-3-phenoxy-phenyl)-((R)-3-propyl-pyrrolidin-3-yl)-methanone], the results for the IC50 on hSERT transporter, at hNET transporter (setting [1]) and at hDAT were 18.6 nM, 24 nM and 2.34 nM, respectively.

For the compound `Cc1cc(C(=O)C2(CCC(C)(C)C)CCNC2)ccc1Cl` (stereo not shown) [Compound 1, (4-Chloro-3-methyl-phenyl)-[3-(3,3-dimethyl-butyl)-pyrrolidin-3-yl]-methanone], the IC50 at hSERT transporter is 1.51 nM; at hNET transporter (setting [1]), 5.5 nM; on hDAT it was 6.31 nM.

With `CC(C)C[C@@]1(C(=O)c2ccc(Cl)c(Cl)c2N)CCNC1` [Compound 2, (2-Amino-3,4-dichloro-phenyl)-((R)-3-isobutyl-pyrrolidin-3-yl)-methanone], the IC50 on hSERT transporter was 2.19 nM; at hNET transporter, 38 nM; at hDAT (setting [2]) it was 692 nM.

As to `CCCC[C@]1(C(=O)c2ccc(Cl)c(Cl)c2N)CC2CC[C@H]1N2` [Compound 3], the figures for the IC50 at hSERT transporter, at hNET transporter (setting [1]) and on hDAT were 83.2 nM, 182 nM and 70.8 nM, respectively.

`CC(C)(C)CCOc1cc(C(=O)C2(CCC(C)(C)C)CCNC2)ccc1Cl` (stereo not shown) [Compound 4, [4-Chloro-3-(3,3-dimethyl-butoxy)-phenyl]-[3-(3,3-dimethyl-butyl)-pyrrolidin-3-yl]-methanone]: the IC50 is 85.1 nM on hSERT transporter (setting [3]), 912 nM at hNET transporter (setting [1]) and 1000 nM on hDAT (setting [2]).

For the compound `CC(C)(C)CCC1(C(=O)c2ccc(Cl)c(OCc3ccccc3)c2)CCNC1` (stereo not shown) [Compound 5, (3-Benzyloxy-4-chloro-phenyl)-[3-(3,3-dimethyl-butyl)-pyrrolidin-3-yl]-methanone], the values for the IC50 on hNET transporter (setting [1]) and on hDAT (setting [2]) were 363 nM and 1450 nM, respectively.

For `COC(C)(C)CCC1(C(=O)c2cc(F)c3[nH]ccc3c2)CCNC1` (stereo not shown) [Compound 6], the results for the IC50 on hSERT transporter, at hNET transporter (setting [1]) and on hDAT were 1.07 nM, 4.79 nM and 15.5 nM, respectively.

In the case of `CC(C)(C)CCC1(C(=O)c2ccc(Cl)c(Oc3ccccc3F)c2)CCNC1` (stereo not shown) [Compound 9, [4-Chloro-3-(2-fluoro-phenoxy)-phenyl]-[3-(3,3-dimethyl-butyl)-pyrrolidin-3-yl]-methanone], the values for the IC50 at hNET transporter (setting [1]) and on hDAT (setting [2]) were 45.7 nM and 1120 nM, respectively.

On to `CCCC1(C(=O)c2ccc(Cl)c(OCc3ccccc3)c2)CCNC1` (stereo not shown) [Compound 10, (3-Benzyloxy-4-chloro-phenyl)-(3-propyl-pyrrolidin-3-yl)-methanone], for which the results for the IC50 at hSERT transporter and at hNET transporter (setting [1]) were 20.4 nM and 1700 nM, respectively.

Take `CCCC1(C(=O)c2ccc(Cl)c(OCC3CCOCC3)c2)CCNC1` (stereo not shown) [Compound 13, [4-Chloro-3-(tetrahydro-pyran-4-ylmethoxy)-phenyl]-(3-propyl-pyrrolidin-3-yl)-methanone]: on hSERT transporter (setting [3]), the IC50 is 145 nM.

Turning to `CCCC1(C(=O)c2ccc(Cl)c(OC(F)(F)F)c2)CCNC1` (stereo not shown) [Compound 14, (4-Chloro-3-trifluoromethoxy-phenyl)-(3-propyl-pyrrolidin-3-yl)-methanone], the IC50 on hSERT transporter is 2.75 nM; at hNET transporter (setting [1]), 302 nM.

For `CCCC1(C(=O)c2ccc(Br)c(Oc3ccccc3)c2)CCNC1` (stereo not shown) [Compound 20, (4-Bromo-3-phenoxy-phenyl)-(3-propyl-pyrrolidin-3-yl)-methanone], the IC50 on hSERT transporter was 12.6 nM; on hNET transporter (setting [1]) it was 7.94 nM.

In the case of `CC[C@@]1(C(=O)c2ccc(Cl)c(Cl)c2)CC[C@@H]2CC[C@H]1N2C` [Compound 53, (3,4-Dichloro-phenyl)-((1R,2R,5R)-2-ethyl-8-methyl-8-aza-bicyclo[3.2.1]oct-2-yl)-methanone], the IC50 at hSERT transporter is 41.7 nM; at hDAT, 288 nM.

For `CCCC1(C(=O)c2ccc(Cl)c(-c3cccnc3)c2)CCCNC1` (stereo not shown) [Compound 55, (4-Chloro-3-pyridin-3-yl-phenyl)-(3-propyl-piperidin-3-yl)-methanone], on hSERT transporter (setting [3]), the IC50 is 245 nM.

In the case of `CCCC1(C(=O)c2ccc(-n3ccnc3)c(Br)c2)CCCNC1` (stereo not shown) [Compound 57, (3-Bromo-4-imidazol-1-yl-phenyl)-(3-propyl-piperidin-3-yl)-methanone], the IC50 on hSERT transporter is 91.2 nM; on hDAT (setting [2]), 4270 nM.

Turning to `CCCC1(C(=O)c2ccc(Cl)c(-n3ccnc3)c2)CCCNC1` (stereo not shown) [Compound 58, (4-Chloro-3-imidazol-1-yl-phenyl)-(3-propyl-piperidin-3-yl)-methanone], the values for the IC50 on hSERT transporter and at hDAT (setting [2]) were 79.4 nM and 1480 nM, respectively.

In the case of `CCCC1(C(=O)c2ccc3ccccc3c2)CCNC1` (stereo not shown) [naphthalen-2-yl-(3-propyl-pyrrolidin-3-yl)-methanone], the Ki on hSERT transporter (SPA, [3H]-Citalopram, approximate value, read-out: pKi human serotonin transporter (converted)) is roughly 0.151 nM.
